For one experiment, the target named is AT1 receptor (Homo sapiens (Human), UniProt P30556). Put plainly: AT1 receptor binding inhibitory action.
A further experiment concerns the target PPARγ (Homo sapiens (Human), UniProt P37231). Nature of the experiment: PPARγ activating action (luciferase reporter in PPARγ:RXRα:4ERPP/CHO-K1 cells). Conditions: CHO-K1, 24 h, read-out: PPARγ activating action (activation % (1 μM)). It counts as cell-based. As to the method: Then the medium was removed from the 96-well half area white plate, 45 μl of Ham's F12 medium containing 0.1% fatty acid-free bovine serum albumin (BSA) and 5 μl of test compound were added, and the cells were cultured in a CO2 gas incubator at 37° C. for 1 day. The medium was removed and 20 μl of PicaGene 7.5 [manufactured by Dainippon Ink and Chemicals Corporation, Japan] diluted 2-fold with HBSS (HANKS' BALANCED SALT SOLUTION) [manufactured by BIO WHITTAKER, USA] was added. After stirring, the luciferase activity was determined using 1420 ARVO Multilabel Counter [manufactured by PerkinElmer, USA]. […] A CHO-K1 cell cultured in a 150 cm^2 cell culture flask [manufactured by Corning Costar Corporation, USA] containing Ham's F12 medium [manufactured by INVITROGEN, USA] supplemented with 10% fetal bovine serum [manufactured by INVITROGEN, USA] was scraped by treating with 0.5 g/L trypsin-0.2 g/L EDTA (ethylenediaminetetraacetic acid) [manufactured by Life Technologies, Inc., USA], and then the cell was washed with PBS (Phosphate-buffered saline) [manufactured by INVITROGEN, USA], centrifuged (1000 rpm, 5 minutes) and suspended in PBS. Subsequently, DNA was introduced into the cell under the conditions shown below using GENE PULSER [manufactured by Bio-Rad Laboratories, USA]. […] Subsequently, the cell was transferred into a F12 medium containing 10% fetal bovine serum and cultured for 24 hours, and then the cell was scraped again and centrifuged, and then suspended in Ham's F12 medium containing 10% fetal bovine serum supplemented with 500 μg/ml of Geneticin [manufactured by INVITROGEN, USA] and 250 μg/ml of Zeocin [manufactured by INVITROGEN, USA]. The obtained suspension was diluted to the density of 10^4 cells/ml and inoculated in a 96-well plate [manufactured by Corning Costar Corporation, USA], which was cultured in a CO2 gas incubator at 37° C., whereby obtaining a Geneticin- and Zeocin-resistant transformant.
Background: A reporter such as luciferase makes a cellular process visible.

The mark [1] stands for this setting: test compound 1 μM, luciferase activity relative to control compound X (1 μM) = 100%, non-administration group = 0%.

IC50 and activation data for 18 molecules are collected here from patent publication US8501750B2, “Heterocyclic compound and use thereof” (Takeda Pharmaceutical Company Limited, priority 2007, dated 2013).

The IC50 is the concentration that gives 50% inhibition. Read a high IC50 as a need for much substance.

Each structure is given as a SMILES string. Structures can show the parent of a compound that is named as a salt. Where two headings read alike, the source gives them in different places.

AT1 receptor, sequence (P30556 whole entry): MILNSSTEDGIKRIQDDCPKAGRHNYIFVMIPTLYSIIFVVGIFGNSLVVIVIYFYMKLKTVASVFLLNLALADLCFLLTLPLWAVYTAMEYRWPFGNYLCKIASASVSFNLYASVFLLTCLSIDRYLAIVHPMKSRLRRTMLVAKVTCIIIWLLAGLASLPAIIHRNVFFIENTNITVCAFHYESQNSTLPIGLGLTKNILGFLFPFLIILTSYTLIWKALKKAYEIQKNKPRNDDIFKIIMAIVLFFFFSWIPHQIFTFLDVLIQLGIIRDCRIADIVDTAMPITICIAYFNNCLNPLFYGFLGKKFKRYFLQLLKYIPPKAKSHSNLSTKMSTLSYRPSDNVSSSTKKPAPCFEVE
PPARγ, sequence (P37231 29-505): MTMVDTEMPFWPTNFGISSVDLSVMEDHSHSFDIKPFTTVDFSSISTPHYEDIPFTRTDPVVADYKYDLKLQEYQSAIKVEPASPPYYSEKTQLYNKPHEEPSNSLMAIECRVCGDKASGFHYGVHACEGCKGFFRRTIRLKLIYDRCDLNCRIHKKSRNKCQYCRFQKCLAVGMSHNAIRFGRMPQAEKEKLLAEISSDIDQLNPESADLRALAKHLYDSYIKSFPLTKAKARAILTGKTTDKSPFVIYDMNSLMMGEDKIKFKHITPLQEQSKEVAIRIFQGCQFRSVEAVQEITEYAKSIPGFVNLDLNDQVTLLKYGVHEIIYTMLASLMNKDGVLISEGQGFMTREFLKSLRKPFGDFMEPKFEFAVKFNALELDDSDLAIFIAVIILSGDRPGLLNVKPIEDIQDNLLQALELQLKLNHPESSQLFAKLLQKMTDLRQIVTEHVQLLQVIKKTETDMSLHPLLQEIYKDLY
PPARγ, sequence (P19793 whole entry partner): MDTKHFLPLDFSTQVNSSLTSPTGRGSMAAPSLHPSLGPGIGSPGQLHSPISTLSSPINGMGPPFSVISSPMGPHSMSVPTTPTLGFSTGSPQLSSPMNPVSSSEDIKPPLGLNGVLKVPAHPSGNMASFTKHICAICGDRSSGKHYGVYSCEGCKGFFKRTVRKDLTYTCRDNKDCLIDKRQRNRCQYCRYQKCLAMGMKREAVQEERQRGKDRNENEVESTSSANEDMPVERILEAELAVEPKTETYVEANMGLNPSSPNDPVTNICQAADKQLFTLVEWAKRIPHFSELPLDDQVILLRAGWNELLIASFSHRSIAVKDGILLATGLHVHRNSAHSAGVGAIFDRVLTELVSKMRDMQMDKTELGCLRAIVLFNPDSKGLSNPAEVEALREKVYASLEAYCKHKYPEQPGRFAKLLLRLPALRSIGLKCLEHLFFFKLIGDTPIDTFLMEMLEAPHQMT

`O=c1[nH]c(-c2ccccc2-c2ccc(Cn3c(=O)n(CCc4ccc(Cl)cc4)c(=O)c4cc(CC(F)(F)F)sc43)cc2)no1` [Ex. 58, 3-[2-(4-chlorophenyl)ethyl]-1-{[2′-(5-oxo-4,5-dihydro-1,2,4-oxadiazol-3-yl)biphenyl-4-yl]methyl}-6-(2,2,2-trifluoroethyl)thieno[2,3-d]pyrimidine-2,4(1H,3H)-dione] came in with an IC50 on AT1 receptor of 1.6 nM. For the same molecule, the activation at 1 µM at PPARγ (setting [1]) worked out at 27%.
The corresponding values for `Cc1ccc(CCn2c(=O)c3cc(CC(F)(F)F)sc3n(Cc3ccc(-c4ccccc4-c4noc(=O)[nH]4)cc3)c2=O)cc1` [Ex. 59, 3-[2-(4-methylphenyl)ethyl]-1-{[2′-(5-oxo-4,5-dihydro-1,2,4-oxadiazol-3-yl)biphenyl-4-yl]methyl}-6-(2,2,2-trifluoroethyl)thieno[2,3-d]pyrimidine-2,4(1H,3H)-dione] are 1.2 nM and 58%.
In the same order, the values of `O=c1[nH]c(-c2ccccc2-c2ccc(Cn3c(=O)n(CCc4cccc(F)c4)c(=O)c4cc(CC(F)(F)F)sc43)cc2)no1` [Ex. 60, 3-[2-(3-fluorophenyl)ethyl]-1-{[2′-(5-oxo-4,5-dihydro-1,2,4-oxadiazol-3-yl)biphenyl-4-yl]methyl}-6-(2,2,2-trifluoroethyl)thieno[2,3-d]pyrimidine-2,4(1H,3H)-dione] are 1 nM and 42%.
The corresponding values for `O=C(Cn1c(=O)c2cc(C3CC3)sc2n(Cc2ccc(-c3ccccc3-c3noc(=O)[nH]3)cc2)c1=O)c1ccc(F)cc1` [Ex. 63, 6-cyclopropyl-3-[2-(4-fluorophenyl)-2-oxoethyl]-1-{[2′-(5-oxo-4,5-dihydro-1,2,4-oxadiazol-3-yl)biphenyl-4-yl]methyl}thieno[2,3-d]pyrimidine-2,4(1H,3H)-dione] are 1.1 nM and 31%.
For `CCc1cc2c(=O)n(CC(=O)c3ccc(OC)cc3F)c(=O)n(Cc3ccc(-c4ccccc4-c4noc(=O)[nH]4)cc3)c2s1` [Ex. 73, 6-ethyl-3-[2-(2-fluoro-4-methoxyphenyl)-2-oxoethyl]-1-{[2′-(5-oxo-4,5-dihydro-1,2,4-oxadiazol-3-yl)biphenyl-4-yl]methyl}thieno[2,3-d]pyrimidine-2,4(1H,3H)-dione], the IC50 at AT1 receptor turned out to be 1.5 nM. For the same molecule, at PPARγ (setting [1]), the activation at 1 µM is 35%.
In the same order, the values of `CCc1cc2c(=O)n(CC(=O)c3ccc(OC)cc3C)c(=O)n(Cc3ccc(-c4ccccc4-c4noc(=O)[nH]4)cc3)c2s1` [Ex. 76, 6-ethyl-3-[2-(4-methoxy-2-methylphenyl)-2-oxoethyl]-1-{[2′-(5-oxo-4,5-dihydro-1,2,4-oxadiazol-3-yl)biphenyl-4-yl]methyl}thieno[2,3-d]pyrimidine-2,4(1H,3H)-dione] are 1 nM and 27%.
The corresponding values for `CCc1cc2c(=O)n(CC(=O)c3ccc(OC)cc3)c(=O)n(Cc3ccc(-c4ccccc4-c4noc(=O)[nH]4)cc3F)c2s1` [Ex. 83, 6-ethyl-1-{[3-fluoro-2′-(5-oxo-4,5-dihydro-1,2,4-oxadiazol-3-yl)biphenyl-4-yl]methyl}-3-[2-(4-methoxyphenyl)-2-oxoethyl]thieno[2,3-d]pyrimidine-2,4(1H,3H)-dione] are 0.77 nM and 37%.
With `COc1ccccc1C(=O)Cn1c(=O)c2cc(C3CC3)sc2n(Cc2ccc(-c3ccccc3-c3noc(O)n3)cc2)c1=O` [Ex. 99, 6-cyclopropyl-3-[2-(2-methoxyphenyl)-2-oxoethyl]-1-{[2′-(5-oxo-4,5-dihydro-1,2,4-oxadiazol-3-yl)biphenyl-4-yl]methyl}thieno[2,3-d]pyrimidine-2,4(1H,3H)-dione potassium salt], the IC50 on AT1 receptor is 1.2 nM. Also, the activation at 1 µM at PPARγ turned out to be 56%.
In turn, `COc1ccc(C(=O)Cn2c(=O)c3cc(C4CC4)sc3n(Cc3ccc(-c4ccccc4-c4noc(O)n4)cc3F)c2=O)cc1` [Ex. 105, 6-cyclopropyl-1-{[3-fluoro-2′-(5-oxo-4,5-dihydro-1,2,4-oxadiazol-3-yl)biphenyl-4-yl]methyl}-3-[2-(4-methoxyphenyl)-2-oxoethyl]thieno[2,3-d]pyrimidine-2,4(1H,3H)-dione potassium salt] showed an IC50 at AT1 receptor of 1 nM. Further, the activation at 1 µM on PPARγ came out at 34%.
In the same order, the values of `COc1cccc(C(=O)Cn2c(=O)c3cc(C4CC4)sc3n(Cc3ccc(-c4ccccc4-c4noc(O)n4)cc3)c2=O)c1` [Ex. 107, 6-cyclopropyl-3-[2-(3-methoxyphenyl)-2-oxoethyl]-1-{[2′-(5-oxo-4,5-dihydro-1,2,4-oxadiazol-3-yl)biphenyl-4-yl]methyl}thieno[2,3-d]pyrimidine-2,4(1H,3H)-dione potassium salt] are 1.1 nM and 43%.
In the same order, the values of `CCc1cc2c(=O)n(CC(=O)c3ccccc3OC)c(=O)n(Cc3ccc(-c4ccccc4-c4noc(O)n4)cc3)c2s1` [Ex. 109, 6-ethyl-3-[2-(2-methoxyphenyl)-2-oxoethyl]-1-{[2′-(5-oxo-4,5-dihydro-1,2,4-oxadiazol-3-yl)biphenyl-4-yl]methyl}thieno[2,3-d]pyrimidine-2,4(1H,3H)-dione potassium salt] are 1.4 nM and 64%.
`CCc1cc2c(=O)n(CC(=O)c3ccc(OC)cc3)c(=O)n(Cc3ccc(-c4ccccc4-c4noc(O)n4)cc3C)c2s1` [Ex. 116, 6-ethyl-3-[2-(4-methoxyphenyl)-2-oxoethyl]-1-{[3-methyl-2′-(5-oxo-4,5-dihydro-1,2,4-oxadiazol-3-yl)biphenyl-4-yl]methyl}thieno[2,3-d]pyrimidine-2,4(1H,3H)-dione potassium salt]: the IC50 on AT1 receptor is 1.8 nM. Also, the activation at 1 µM at PPARγ was found to be 38%.
Molecule `CCc1cc2c(=O)n(CCN3CCOCC3)c(=O)n(Cc3ccc(-c4ccccc4-c4noc(=O)[nH]4)cc3F)c2s1` [Ex. 117, 6-ethyl-1-{[3-fluoro-2′-(5-oxo-4,5-dihydro-1,2,4-oxadiazol-3-yl)biphenyl-4-yl]methyl}-3-(2-morpholin-4-ylethyl)thieno[2,3-d]pyrimidine-2,4(1H,3H)-dione] returned an IC50 on AT1 receptor of 1.8 nM. The activation at 1 µM at PPARγ (setting [1]) was 62%.
The corresponding values for `CCc1cc2c(=O)n(CC(=O)c3ccc(Cl)cc3)c(=O)n(Cc3ccc(-c4ccccc4-c4noc(=O)[nH]4)cc3)c2s1` [Ex. 121, 3-[2-(4-chlorophenyl)-2-oxoethyl]-6-ethyl-1-{[2′-(5-oxo-4,5-dihydro-1,2,4-oxadiazol-3-yl)biphenyl-4-yl]methyl}thieno[2,3-d]pyrimidine-2,4(1H,3H)-dione] are 1.7 nM and 28%.
Regarding `COc1ccccc1C(=O)Cn1c(=O)c2cc(CC(F)(F)F)sc2n(Cc2c(F)cc(-c3ccccc3-c3noc(O)n3)cc2F)c1=O` [Ex. 127, 1-{[3,5-difluoro-2′-(5-oxo-4,5-dihydro-1,2,4-oxadiazol-3-yl)biphenyl-4-yl]methyl}-3-[2-(2-methoxyphenyl)-2-oxoethyl]-6-(2,2,2-trifluoroethyl)thieno[2,3-d]pyrimidine-2,4(1H,3H)-dione potassium salt], on AT1 receptor, the IC50 was found to be 1.4 nM. In addition, the activation at 1 µM at PPARγ came out at 53%.
At AT1 receptor, `COc1cc(F)ccc1C(=O)Cn1c(=O)c2cc(C3CC3)sc2n(Cc2ccc(-c3ccccc3-c3noc(=O)[nH]3)cc2F)c1=O` [Ex. 129, 6-cyclopropyl-3-[2-(4-fluoro-2-methoxyphenyl)-2-oxoethyl]-1-{[3-fluoro-2′-(5-oxo-4,5-dihydro-1,2,4-oxadiazol-3-yl)biphenyl-4-yl]methyl}thieno[2,3-d]pyrimidine-2,4(1H,3H)-dione] had an IC50 of 1.6 nM. For the same molecule, the activation at 1 µM at PPARγ (setting [1]) was found to be 61%.
`COc1cc(F)ccc1C(=O)Cn1c(=O)c2cc(C3CC3)sc2n(Cc2ccc(-c3ccccc3-c3noc(=O)[nH]3)cc2)c1=O` [Ex. 130, 6-cyclopropyl-3-[2-(4-fluoro-2-methoxyphenyl)-2-oxoethyl]-1-{[2′-(5-oxo-4,5-dihydro-1,2,4-oxadiazol-3-yl)biphenyl-4-yl]methyl}thieno[2,3-d]pyrimidine-2,4(1H,3H)-dione] gave an IC50 at AT1 receptor of 1.6 nM. Further, the activation at 1 µM at PPARγ (setting [1]) is 56%.
`CCc1cc2c(=O)n(CC(=O)C(C)(C)C)c(=O)n(Cc3ccc(-c4ccccc4-c4noc(=O)[nH]4)cc3)c2s1` [Ex. 131, 3-(3,3-dimethyl-2-oxobutyl)-6-ethyl-1-{[2′-(5-oxo-4,5-dihydro-1,2,4-oxadiazol-3-yl)biphenyl-4-yl]methyl}thieno[2,3-d]pyrimidine-2,4(1H,3H)-dione]: the IC50 at AT1 receptor came to 1.2 nM. Further, the activation at 1 µM at PPARγ (setting [1]) was 72%.
